Patent US20220387630A1, “METHOD FOR SCREENING ANTICANCER AGENT AND COMBINATION DRUG OF KINASE INHIBITORS FOR TREATMENT OF PANCREATIC CANCER” (National University Corporation Hokkaido University, priority 2020, published 2022)

Columns and labels:
MIA PaCa-2 cells = test: MTS cell viability assay in human pancreatic cancer cells; assay type: cell-based; conditions: in combination with Trametinib, 72 hours
Description: Example 4 Evaluation of efficacy of kinase inhibitor with use of human pancreatic cancer cells Human pancreatic cancer cell line (MIA PaCa-2) was purchased from National Institute of RIKEN BioResource Research Center, and cultured in Dulbecco's Modified Eagle's Medium (Nacalai tesque) supplemented with 10% fetal bovine serum (Gibco) and 1% penicillin-streptomycin (Nacalai tesque) at 37° C. in the presence of 5% CO2.
Trametinib (DMSO only, 1 μM, 300 μM), Adavosertib (300 μM, 1 mM), AD80 (30 μM, 3 mM), Alisertib (30 μM, 1 mM) and BI-831266 (3 μM, 3 mM) was each prepared and diluted to 100-fold in the medium to produce a drug solution.
MIA PaCa-2 cells were seeded into a 96-well plate at 1000 cells/well (in 100 μL medium). After culturing for one day, 10 μL of the drug solution of Trametinib alone or Trametinib combined with another kinase inhibitor was added to the cells in each well on the 96-well plate (0.2% final concentration of DMSO). Each combination was tested in five wells. After the addition of the drug solution, the cells were cultured at 37° C. for 72 hours in the presence of 5% CO2, and then the cell viability was measured using MTS assay (CellTiter 96 (registered trademark), Promega). The viability is expressed as a ratio to that of a control (solvent only).

4-hit flies (non-GFP) = test: Efficacy of kinase inhibitors on 4-hit fly survival rate (drug food); assay type: in vivo, Drosophila; conditions: used alone; 1 M Trametinib in food; reared at 25° C. for 13 days
Description: Trametinib (MEK inhibitor), Adavosertib (referred also to as MK-1775, WEE1 inhibitor), AD80 (FRK inhibitor), Y-27632 (ROCK inhibitor), Alisertib (AURKA inhibitor, the above all purchased from MedChem Express), BI-831266 (AURKB inhibitor, obtained from Boehringer Ingelheim) was each dissolved in DMSO (SIGMA) and stored at −20° C.
Agar (Wako), brewers' yeast (MP Bio), yeast extract (Sigma Aldrich), bacto casitone (BD), sucrose (Wako), glucose (Wako), MgCl2 (Wako) CaCl2 (Wako), Propionic acid (Wako), and Mold inhibitor (10% Methyl-4-hydroxy Benzoate in 95% Ethanol; Wako) were dissolved in ultrapure water to prepare a standard food. While kept at 50° C., the kinase inhibitor (Trametinib alone or a combination of Trametinib and another kinase inhibitor) dissolved in DMSO was added for mixing. The resulting solution was cooled to obtain a drug food. The final concentrations of the compounds in the food were […] for Trametinib, 100 μM for Adavosertib, 50 μM for AD80, 10 μM for Y-27632, and 100 μM for BI-831266.
The UAS-Ras^G12D, UAS-p53^shRNA, UAS-CycE, UAS-Med^shRNA fly produced in Example 1 was mated with a Ser-gal4 fly (Bloomington Drosophila Stock Center). […] The eggs were reared at 25° C. for 13 days, and survival rate of 4-hit flies (non-GFP) reared on each food was calculated by dividing the number of eclosed pupae by the total number of pupae.

| SMILES | cell viability compared to that of Trametinib used alone (MIA PaCa-2 cells) | increase of survival rate of 4-hit flies (non-GFP) (4-hit flies (non-GFP)) [%] |
| --- | --- | --- |
| CC(C)n1nc(-c2ccc(NC(=O)Nc3cc(C(F)(F)F)ccc3F)cc2)c2c(N)ncnc21 [AD80] | greatly reduced the cell viability | – |
| C=CCn1c(=O)c2cnc(Nc3ccc(N4CCN(C)CC4)cc3)nc2n1-c1cccc(C(C)(C)O)n1 [Adavosertib] | greatly reduced the cell viability | – |
| COc1cc(Nc2ncc3c(n2)-c2ccc(Cl)cc2C(c2c(F)cccc2OC)=NC3)ccc1C(=O)O [Alisertib] | greatly reduced the cell viability | – |
| CC(=O)Nc1cccc(-n2c(=O)n(C3CC3)c(=O)c3c(Nc4ccc(I)cc4F)n(C)c(=O)c(C)c32)c1 [Trametinib] | – | 20 |
